Measured values from ChEMBL document CHEMBL1208788 (Bioorg Med Chem Lett, 2010).
pIC50: −log10 of the molar value.

Biological target: Cannabinoid receptor 1 (Homo sapiens, UniProt P21554)
Test: Displacement of [3H][…] from human recombinant cannabinoid CB1 receptor expressed in CHO cells
Assay type: cell-based

Sequence of Cannabinoid receptor 1 (P21554 whole entry): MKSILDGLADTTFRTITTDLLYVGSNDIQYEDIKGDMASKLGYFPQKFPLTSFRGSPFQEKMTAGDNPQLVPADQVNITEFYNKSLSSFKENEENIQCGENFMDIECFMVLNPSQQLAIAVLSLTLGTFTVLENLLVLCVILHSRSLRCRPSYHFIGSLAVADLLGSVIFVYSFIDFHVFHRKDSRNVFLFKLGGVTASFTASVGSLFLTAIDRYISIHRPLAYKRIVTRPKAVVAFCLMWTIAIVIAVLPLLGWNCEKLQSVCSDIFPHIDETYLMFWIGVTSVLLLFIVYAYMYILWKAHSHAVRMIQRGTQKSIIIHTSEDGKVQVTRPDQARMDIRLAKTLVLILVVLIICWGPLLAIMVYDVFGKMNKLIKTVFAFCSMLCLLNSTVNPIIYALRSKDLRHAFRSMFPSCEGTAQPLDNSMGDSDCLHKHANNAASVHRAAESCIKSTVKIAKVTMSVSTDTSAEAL

| pIC50 | Structure (SMILES) |
| --- | --- |
| 5.89 | CC(C)(Oc1ccc(C(F)(F)F)cn1)C(=O)N1CC(Cc2ccc(Cl)cc2)(c2ccccc2)C1 |
| 9.23 | C[C@H](NC(=O)C(C)(C)Oc1ccc(C(F)(F)F)cn1)[C@@H](Cc1ccc(Cl)cc1)c1cccc(Br)c1 (racemic) |
| 7.66 | CC(C)(Oc1ccc(C(F)(F)F)cn1)C(=O)NC(C)(C)[C@@H](Cc1ccc(Cl)cc1)c1cccc(Br)c1 (racemic) |
| 6.47 | CC(C)(Oc1ccc(C(F)(F)F)cn1)C(=O)NCC(C)(Cc1ccc(Cl)cc1)c1cccc(Br)c1 (racemic) |
| 7.60 | CC(NC(=O)C(C)(C)Oc1ccc(C(F)(F)F)cn1)C(C)(Cc1ccc(Cl)cc1)c1cccc(Br)c1 (racemic) |
| 6.09 | CC(C)(Oc1ccc(C(F)(F)F)cn1)C(=O)N1CCC(Cc2ccc(Cl)cc2)(c2ccccc2)C1 (racemic) |
| 5.70 | CC(C)(Oc1ccc(C(F)(F)F)cn1)C(=O)N1CCCC(Cc2ccc(Cl)cc2)(c2ccccc2)C1 (racemic) |
| 6.59 | CC(NC(=O)C(C)(C)Oc1ccc(C(F)(F)F)cn1)C(C)(Cc1ccc(Cl)cc1)c1cccc(Br)c1 (stereo in doubt; 5b) |
